Assay results published in patent US11702422B2, “Imidazopyridazines as modulators of IL-17” (Janssen Pharmaceutica NV, priority 2020, dated 2023).

Experiments:
[1] = tested on: IL-17A-induced G-CSF production in human normal keratinocyte (NHK); assay: NHK Assay: IL-17A-induced G-CSF production in human normal keratinocytes; type: cell-based; details: adult normal human keratinocytes, IL-17A 5 ng/mL, 24 h, simple average if tested more than once
Procedure, shortened: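 Titrated compound plus recombinant human IL-17A (pre-incubated 1 h, rt) were applied to adult human keratinocytes at 5 ng/mL cytokine, 0.2% DMSO. Cultures ran 24 h at 37° C, and supernatant G-CSF was measured by HTRF to derive IC50.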

[2] = molecular target: IL-17A(FLAG-Tagged): IL-17RA(His-Tagged) (Homo sapiens, UniProt Q16552, K93Q); assay: IL-17A(FLAG-Tagged): IL-17RA(His-Tagged) Binding Disruption Eu-HTRF Assay; details: IL-17A/IL-17RA binding disruption, simple average if tested more than once
Sequence of UniProt Q16552 (Q16552 with tags, fused parts or gaps K93Q): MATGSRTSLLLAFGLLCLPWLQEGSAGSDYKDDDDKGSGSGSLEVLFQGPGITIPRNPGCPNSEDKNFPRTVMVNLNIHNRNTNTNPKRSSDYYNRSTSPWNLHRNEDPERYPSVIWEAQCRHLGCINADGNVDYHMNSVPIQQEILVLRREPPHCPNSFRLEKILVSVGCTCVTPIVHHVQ
Procedure, shortened: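 IC50 comes from a one-site competition fit of the HTRF 665/620 nm ratio. Compound dilutions (2-fold, 22 points) were held 1 h rt with FLAG-tagged IL-17A dimer, then His-tagged IL-17RA plus Eu-cryptate anti-FLAG and D2 anti-His antibodies were added for 2 h rt.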

Structure (SMILES)	IC50 [2] [nM]	IC50 [1] [nM]	IC50 ([1]; Homo sapiens, Keratinocyte) [nM]
CCOCC(NC(=O)CC1CC(F)(F)C1)c1cnn2cc([C@@H](NC(=O)c3ccnn3C(C)C)C3CCC(F)(F)CC3)nc2c1 (single isomer, unassigned) [Example 529, N—((S)-(7-((S*)-1-(2-(3,3-Difluorocyclobutyl)acetamido)-2-ethoxyethyl)imidazo[1,2-b]pyridazin-2-yl)(4,4-difluorocyclohexyl)methyl)-1-isopropyl-1H-pyrazole-5-carboxamide]	340	120	–
[2H]C([2H])([2H])C([2H])([2H])n1nccc1C(=O)N[C@H](c1cn2ncc(C(COCC)NC(=O)CC3CC(F)(F)C3)cc2n1)C1CCC(F)(F)CC1 (single isomer, unassigned) [Example 530, N—((S)-(7-((R*)-1-(2-(3,3-Difluorocyclobutyl)acetamido)-2-ethoxyethyl)imidazo[1,2-b]pyridazin-2-yl)(4,4-difluorocyclohexyl)methyl)-1-(ethyl-d5)-1H-pyrazole-5-carboxamide]	980	4600	–
[2H]C([2H])([2H])C([2H])([2H])n1nccc1C(=O)N[C@H](c1cn2ncc(C(COCC)NC(=O)CC3CC(F)(F)C3)cc2n1)C1CCC(F)(F)CC1 (single isomer, unassigned) [Example 531, N—((S)-(7-((S*)-1-(2-(3,3-Difluorocyclobutyl)acetamido)-2-ethoxyethyl)imidazo[1,2-b]pyridazin-2-yl)(4,4-difluorocyclohexyl)methyl)-1-(ethyl-d5)-1H-pyrazole-5-carboxamide]	220	110	–
CC(C)n1nccc1C(=O)N[C@H](c1cn2ncc(C(CO)NC(=O)CC3CC(F)(F)C3)cc2n1)C1CCC(F)(F)CC1 (single isomer, unassigned) [Example 532, N—((S)-(7-((R*)-1-(2-(3,3-Difluorocyclobutyl)acetamido)-2-hydroxyethyl)imidazo[1,2-b]pyridazin-2-yl)(4,4-difluorocyclohexyl)methyl)-1-isopropyl-1H-pyrazole-5-carboxamide]	1500	2800	–
CC(C)n1nccc1C(=O)N[C@H](c1cn2ncc(C(CO)NC(=O)CC3CC(F)(F)C3)cc2n1)C1CCC(F)(F)CC1 (single isomer, unassigned) [Example 533, N—((S)-(7-((S*)-1-(2-(3,3-Difluorocyclobutyl)acetamido)-2-hydroxyethyl)imidazo[1,2-b]pyridazin-2-yl)(4,4-difluorocyclohexyl)methyl)-1-isopropyl-1H-pyrazole-5-carboxamide]	480	150	–
CC(C)n1nccc1C(=O)N[C@H](c1cn2ncc(C(NC(=O)CC3CC(F)(F)C3)C3CCOCC3)cc2n1)C1CCC(F)(F)CC1 (single isomer, unassigned) [Example 535, N—((S)-(7-((R*)-1-(2-(3,3-Difluorocyclobutyl)acetamido)(tetrahydro-2H-pyran-4-yl)methyl)imidazo[1,2-b]pyridazin-2-yl)(4,4-difluorocyclohexyl)methyl)-1-isopropyl-1H-pyrazole-5-carboxamide]	440	–	89
Cc1nonc1C(=O)N[C@H](c1cn2ncc(C(NC(=O)CCC(F)(F)F)C(C)C)cc2n1)C1CCC(F)(F)CC1 (single isomer, unassigned) [Example 546, N—((S)-(4,4-Difluorocyclohexyl)(7-((R*)-2-methyl-1-(4,4,4-trifluorobutanamido)propyl)imidazo[1,2-b]pyridazin-2-yl)methyl)-4-methyl-1,2,5-oxadiazole-3-carboxamide]	640	> 20000	–
O=C(CCC(F)(F)F)NCc1cnn2cc([C@@H](NC(=O)c3ccccc3)C3CCC(F)(F)CC3)nc2c1 [Example 5, (S)—N-((4,4-Difluorocyclohexyl)(7-((4,4,4-trifluorobutanamido)methyl)imidazo[1,2-b]pyridazin-2-yl)methyl)benzamide]	1100	–	1900
O=C(CCC(F)(F)F)N[C@@H](c1cnn2cc([C@@H](NC(=O)c3ncn(CCC(F)(F)F)n3)C3CCC(F)(F)CC3)nc2c1)C1CC1 [Example 33, N—((S)-(7-((R)-Cyclopropyl(4,4,4-trifluorobutanamido)methyl)imidazo[1,2-b]pyridazin-2-yl)(4,4-difluorocyclohexyl)methyl)-1-(3,3,3-trifluoropropyl)-1H-1,2,4-triazole-3-carboxamide]	4500	–	> 20000
O=C(CCC(F)(F)F)N[C@@H](c1cnn2cc([C@@H](NC(=O)c3cnnn3CCOC(F)F)C3CCC(F)(F)CC3)nc2c1)C1CC1 [Example 34, N—((S)-(7-((R)-Cyclopropyl(4,4,4-trifluorobutanamido)methyl)imidazo[1,2-b]pyridazin-2-yl)(4,4-difluorocyclohexyl)methyl)-1-(2-(difluoromethoxy)ethyl)-1H-1,2,3-triazole-5-carboxamide]	180	–	64

The next compounds have a lower IC50 [2] than those just listed; values first:

IC50 [2] [nM]	Structure (SMILES)	IC50 [1] [nM]	IC50 ([1]; Homo sapiens, Keratinocyte) [nM]
96	Cc1nonc1C(=O)N[C@H](c1cn2ncc(C(NC(=O)CC3CC(F)(F)C3)C3CCOCC3)cc2n1)C1CCC(F)(F)CC1 (single isomer, unassigned) [Example 534, N—((S)-(7-((R*)-1-(2-(3,3-Difluorocyclobutyl)acetamido)(tetrahydro-2H-pyran-4-yl)methyl)imidazo[1,2-b]pyridazin-2-yl)(4,4-difluorocyclohexyl)methyl)-4-methyl-1,2,5-oxadiazole-3-carboxamide]	–	70
24	COCC(NC(=O)CC1CC(F)(F)C1)c1cnn2cc([C@H](COC(C)(C)C(F)(F)F)NC(=O)c3nonc3C3CC3)nc2c1 (single isomer, unassigned) [Example 538, 4-Cyclopropyl-N—((R)-1-(7-((S*)-1-(2-(3,3-difluorocyclobutyl)acetamido)-2-methoxyethyl)imidazo[1,2-b]pyridazin-2-yl)-2-((1,1,1-trifluoro-2-methylpropan-2-yl)oxy)ethyl)-1,2,5-oxadiazole-3-carboxamide]	–	80
130	COCC(NC(=O)CC1CC(F)(F)C1)c1cnn2cc([C@H](COC(C)(C)C(F)(F)F)NC(=O)c3ccnn3C(C)C)nc2c1 (single isomer, unassigned) [Example 539, N—((R)-1-(7-((S*)-1-(2-(3,3-Difluorocyclobutyl)acetamido)-2-methoxyethyl)imidazo[1,2-b]pyridazin-2-yl)-2-((1,1,1-trifluoro-2-methylpropan-2-yl)oxy)ethyl)-1-isopropyl-1H-pyrazole-5-carboxamide]	–	78
71	O=C(CCC(F)(F)F)NC(c1cnn2cc([C@@H](NC(=O)c3cnn(CC4CC4)n3)C3CCC(F)(F)CC3)nc2c1)C1CC1 (stereo in doubt) [Example 25, N—((S)-(7-((R*)-Cyclopropyl(4,4,4-trifluorobutanamido)methyl)imidazo[1,2-b]pyridazin-2-yl)(4,4-difluorocyclohexyl)methyl)-2-(cyclopropylmethyl)-2H-1,2,3-triazole-4-carboxamide]	–	350
90	O=C(CC1CC(F)(F)C1)NC(c1cnn2cc([C@@H](NC(=O)c3cnn(CC(F)(F)F)n3)C3CCC(F)(F)CC3)nc2c1)C1CC1 (stereo in doubt) [Example 28, N—((S)-(7-((R*)-Cyclopropyl(2-(3,3-difluorocyclobutyl)acetamido)methyl)imidazo[1,2-b]pyridazin-2-yl)(4,4-difluorocyclohexyl)methyl)-2-(2,2,2-trifluoroethyl)-2H-1,2,3-triazole-4-carboxamide]	–	390
49	O=C(CCC(F)(F)F)N[C@H](c1cnn2cc([C@H](NC(=O)c3conc3C3CCCC3)C3CCC(F)(F)CC3)nc2c1)C1CC1 (stereo in doubt) [Example 117, 3-Cyclopentyl-N—((R)-(7-((S)-cyclopropyl(4,4,4-trifluorobutanamido)methyl)imidazo[1,2-b]pyridazin-2-yl)(4,4-difluorocyclohexyl)methyl)isoxazole-4-carboxamide]	–	120
87	CC(C)C(NC(=O)CC1CC(F)(F)C1)c1cnn2cc([C@@H](NC(=O)c3nonc3OCC(F)F)C3CCC(F)(F)CC3)nc2c1 (stereo in doubt) [Example 514, N—((S)-(7-((S*)-1-(2-(3,3-Difluorocyclobutyl)acetamido)-2-methylpropyl)imidazo[1,2-b]pyridazin-2-yl)(4,4-difluorocyclohexyl)methyl)-4-(2,2-difluoroethoxy)-1,2,5-oxadiazole-3-carboxamide]	–	42
150	CC(C)n1ncnc1C(=O)N[C@H](c1cn2ncc(C(NC(=O)CC3CC(F)(F)C3)C3CCOCC3)cc2n1)C1CCC(F)(F)CC1 (stereo in doubt) [Example 537, N—((S)-(7-((R*)-(2-(3,3-Difluorocyclobutyl)acetamido)(tetrahydro-2H-pyran-4-yl)methyl)imidazo[1,2-b]pyridazin-2-yl)(4,4-difluorocyclohexyl)methyl)-1-isopropyl-1H-1,2,4-triazole-5-carboxamide]	–	150
100	O=C(CCC(F)(F)F)N[C@@H](c1cnn2cc([C@@H](NC(=O)c3cnn(CC4CCC4(F)F)n3)C3CCC(F)(F)CC3)nc2c1)C1CC1 (stereo partly shown) [Example 4]	–	370
140	O=C(CCC(F)(F)F)N[C@@H](c1cnn2cc([C@@H](NC(=O)c3cnn(CCC(F)F)n3)C3CCC(F)(F)CC3)nc2c1)C1CC1 [Example 32, N—((S)-(7-((R)-Cyclopropyl(4,4,4-trifluorobutanamido)methyl)imidazo[1,2-b]pyridazin-2-yl)(4,4-difluorocyclohexyl)methyl)-2-(3,3-difluoropropyl)-2H-1,2,3-triazole-4-carboxamide]	–	240
